In the assay the target is transferrin receptor (hTfR) (Homo sapiens, UniProt P02786). Put plainly: Intermolecular interaction evaluation test between transferrin receptor (hTfR) and peptide-nucleic acid conjugate using surface plasmon resonance (SPR). It counts as binding. How it is done: Intermolecular interaction evaluation test between transferrin receptor (hTfR) and peptide using surface plasmon resonance (SPR)
The various synthesized peptide-nucleic acid conjugates were tested for intermolecular interaction by surface plasmon resonance (SPR) of the peptide-nucleic acid conjugate with transferrin receptor (hTfR) using the method shown below. The specific test method is shown below.
NTA sensor chip (Global Life Science Technologies Japan Co., Ltd.) was inserted into Biacore T200 (Global Life Science Technologies Japan Co., Ltd.), prime operation was performed three times with running buffer: 10 mM HEPES pH 8.0 (Nacalai Tesque Co., Ltd.), 150 mM NaCl (Nacalai Tesque Co., Ltd.), 0.05% Tween 20 (Nacalai Tesque Co., Ltd.), 0.1% BSA (SIGMA-ALDRICH), and 1.0% DMSO (FUJIFILM Wako Pure Chemical Corporation), and equilibrated at a flow rate of 30 μL/min. 350 mM EDTA solution was reacted for 60 seconds at a flow rate of 10 μL/min, 0.5 mM NiCl2 solution (Kishida Chemical) was reacted for 60 seconds at a flow rate of 10 μL/min, and the NTA sensor chip was washed with 3 mM EDTA solution (Nacalai Tesque Co., Ltd.) for 60 seconds at a flow rate of 10 μL/min. After mixing 50 μL each of […] EDC solution (Global Life Science Technologies Japan Co., Ltd.) and […] NHS solution (Global Life Science Technologies Japan Co., Ltd.), the mixture was reacted for 420 seconds at a flow rate of 10 μL/min. 150 μL of a 0.5 μM hTfR solution was prepared by diluting with a running buffer and reacted for 300 seconds at a flow rate of 10 μL/min to immobilize hTfR on the NTA sensor chip. After immobilization, capping was performed by reacting with a 1.0 M ethanolamine aqueous solution (Global Life Science Technologies Japan Co., Ltd.) at a flow rate of 10 μL/min for 420 seconds. A peptide-nucleic acid conjugate solution adjusted to 10 mM in DMSO solution was diluted with running buffer to a final concentration of 10 μM peptide-nucleic acid conjugate solution, and 100 nM, 50 nM, 25 nM, 10 nM, 5 nM peptide-nucleic acid conjugate solutions were prepared. Using the aforementioned samples, the kinetics of the peptide against hTfR was obtained by SPR measurement.
The kinetics evaluation model was Single Cycle Kinetics, and curve fitting was performed using Biacore T200 Evaluation Software Version 3.0 (Global Life Science Technologies Japan Co., Ltd.). The obtained sensorgram was subjected to curve fitting using the least squares method, and the binding of the peptide-nucleic acid conjugate to hTfR was evaluated by determining the KD value.

The structures appear in SMILES notation. pKd: −log10 of the molar value.

Chain of transferrin receptor (hTfR) (P02786 whole entry): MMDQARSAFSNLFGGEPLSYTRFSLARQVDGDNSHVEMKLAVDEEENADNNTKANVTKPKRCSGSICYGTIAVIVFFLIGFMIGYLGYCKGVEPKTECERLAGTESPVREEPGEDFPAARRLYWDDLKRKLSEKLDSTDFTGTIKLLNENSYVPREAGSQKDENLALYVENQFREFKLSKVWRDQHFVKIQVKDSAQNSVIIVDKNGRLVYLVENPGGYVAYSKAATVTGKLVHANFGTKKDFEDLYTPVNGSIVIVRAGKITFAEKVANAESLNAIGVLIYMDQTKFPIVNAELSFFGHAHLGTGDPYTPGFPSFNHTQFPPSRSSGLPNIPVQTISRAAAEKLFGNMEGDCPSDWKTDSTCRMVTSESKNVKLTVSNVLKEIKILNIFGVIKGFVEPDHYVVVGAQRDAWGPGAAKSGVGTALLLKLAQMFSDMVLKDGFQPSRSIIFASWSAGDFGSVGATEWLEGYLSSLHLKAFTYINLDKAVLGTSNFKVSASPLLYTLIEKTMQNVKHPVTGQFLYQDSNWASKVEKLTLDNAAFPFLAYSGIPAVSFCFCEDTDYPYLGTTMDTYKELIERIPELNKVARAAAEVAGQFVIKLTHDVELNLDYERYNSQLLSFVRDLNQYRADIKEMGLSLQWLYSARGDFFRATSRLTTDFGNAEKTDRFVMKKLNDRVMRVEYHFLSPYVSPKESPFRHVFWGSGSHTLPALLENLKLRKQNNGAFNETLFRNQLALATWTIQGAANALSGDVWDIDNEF

`CC[C@H](C)[C@@H]1NC(=O)[C@H](Cc2ccc(O)cc2)NC(=O)[C@H](Cc2ccc(O)cc2)NC(=O)[C@H](CC(N)=O)NC(=O)[C@H](Cc2c[nH]c3ccccc23)NC(=O)[C@H](C(C)C)NC(=O)[C@H](Cc2ccccc2)N(C)C(=O)[C@H](C(C)C)NC(=O)[C@H](C)NC(=O)CSC[C@@H](C(=O)NCC(=O)N[C@@H](CCCCn2nnc3c2CCC2C(CC3)C2COC(=O)NCC(=O)NCC(=O)NCC(=O)N[C@@H](CCC(=O)O)C(=O)N[C@@H](CCC(=O)O)C(=O)N[C@@H](CCC(=O)O)C(=O)N[C@@H](CO)C(=O)N[C@@H](CO)C(=O)N[C@@H](CSC2CC(=O)N(CCC(=O)N3C[C@@H](COP(=O)(N(C)C)N4C[C@@H](COP(=O)(N(C)C)N5C[C@@H](COP(=O)(N(C)C)N6C[C@@H](COP(=O)(N(C)C)N7C[C@@H](COP(=O)(N(C)C)N8C[C@@H](COP(=O)(N(C)C)N9C[C@@H](COP(=O)(N(C)C)N%10C[C@@H](COP(=O)(N(C)C)N%11C[C@@H](COP(=O)(N(C)C)N%12C[C@@H](COP(=O)(N(C)C)N%13C[C@@H](COP(=O)(N(C)C)N%14C[C@@H](COP(=O)(N(C)C)N%15C[C@@H](COP(=O)(N(C)C)N%16C[C@@H](COP(=O)(N(C)C)N%17C[C@@H](COP(=O)(N(C)C)N%18C[C@@H](COP(=O)(N(C)C)N%19C[C@@H](COP(=O)(N(C)C)N%20C[C@@H](COP(=O)(N(C)C)N%21C[C@@H](COP(=O)(N(C)C)N%22C[C@@H](COP(=O)(N(C)C)N%23C[C@@H](COP(=O)(N(C)C)N%24C[C@@H](COP(=O)(N(C)C)N%25C[C@@H](COP(=O)(N(C)C)N%26C[C@@H](COP(=O)(N(C)C)N%27C[C@@H](COP(=O)(N(C)C)N(C)CC(N)=O)O[C@@H](n%28cnc%29c(=O)[nH]c(N)nc%29%28)C%27)O[C@@H](n%27cc(C)c(=O)[nH]c%27=O)C%26)O[C@@H](n%26cc(C)c(=O)[nH]c%26=O)C%25)O[C@@H](n%25cnc%26c(=O)[nH]c(N)nc%26%25)C%24)O[C@@H](n%24ccc(N)nc%24=O)C%23)O[C@@H](n%23ccc(N)nc%23=O)C%22)O[C@@H](n%22cc(C)c(=O)[nH]c%22=O)C%21)O[C@@H](n%21ccc(N)nc%21=O)C%20)O[C@@H](n%20ccc(N)nc%20=O)C%19)O[C@@H](n%19cnc%20c(=O)[nH]c(N)nc%20%19)C%18)O[C@@H](n%18cnc%19c(=O)[nH]c(N)nc%19%18)C%17)O[C@@H](n%17cc(C)c(=O)[nH]c%17=O)C%16)O[C@@H](n%16cc(C)c(=O)[nH]c%16=O)C%15)O[C@@H](n%15ccc(N)nc%15=O)C%14)O[C@@H](n%14cc(C)c(=O)[nH]c%14=O)C%13)O[C@@H](n%13cnc%14c(=O)[nH]c(N)nc%14%13)C%12)O[C@@H](n%12cnc%13c(N)ncnc%13%12)C%11)O[C@@H](n%11cnc%12c(N)ncnc%12%11)C%10)O[C@@H](n%10cnc%11c(=O)[nH]c(N)nc%11%10)C9)O[C@@H](n9cnc%10c(=O)[nH]c(N)nc%109)C8)O[C@@H](n8cc(C)c(=O)[nH]c8=O)C7)O[C@@H](n7cnc8c(=O)[nH]c(N)nc87)C6)O[C@@H](n6cc(C)c(=O)[nH]c6=O)C5)O[C@@H](n5cc(C)c(=O)[nH]c5=O)C4)O[C@@H](n4ccc(N)nc4=O)C3)C2=O)C(N)=O)C(N)=O)NC(=O)[C@H](Cc2ccc(O)cc2)N(C)C(=O)[C@H](Cc2ccc(O)cc2)NC(=O)[C@H](CCCNC(=N)N)NC(=O)[C@H](CCCNC(=N)N)NC(=O)[C@H]([C@@H](C)CC)NC1=O` (some centres unmarked) [Example 58] had a pKd of more than 7.00.
Under `CC[C@H](C)[C@@H]1NC(=O)[C@H](Cc2ccc(O)cc2)NC(=O)[C@H](Cc2ccc(O)cc2)NC(=O)[C@H](CC(N)=O)NC(=O)[C@H](Cc2c[nH]c3ccccc23)NC(=O)[C@H](C(C)C)NC(=O)[C@H](Cc2ccccc2)N(C)C(=O)[C@H](C(C)C)NC(=O)[C@H](C)NC(=O)CSC[C@@H](C(=O)NCC(=O)N[C@@H](CCCCn2cc(CCC(=O)NCCOCCOCC(=O)N[C@@H](CCCNC(=N)N)C(=O)N[C@@H](CCCNC(=N)N)C(=O)N[C@@H](CCCNC(=N)N)C(=O)NCC(=O)N3C[C@@H](COP(=O)(N(C)C)N4C[C@@H](COP(=O)(N(C)C)N5C[C@@H](COP(=O)(N(C)C)N6C[C@@H](COP(=O)(N(C)C)N7C[C@@H](COP(=O)(N(C)C)N8C[C@@H](COP(=O)(N(C)C)N9C[C@@H](COP(=O)(N(C)C)N%10C[C@@H](COP(=O)(N(C)C)N%11C[C@@H](COP(=O)(N(C)C)N%12C[C@@H](COP(=O)(N(C)C)N%13C[C@@H](COP(=O)(N(C)C)N%14C[C@@H](COP(=O)(N(C)C)N%15C[C@@H](COP(=O)(N(C)C)N%16C[C@@H](COP(=O)(N(C)C)N%17C[C@@H](COP(=O)(N(C)C)N%18C[C@@H](COP(=O)(N(C)C)N%19C[C@@H](COP(=O)(N(C)C)N%20C[C@@H](COP(=O)(N(C)C)N%21C[C@@H](COP(=O)(N(C)C)N%22C[C@@H](COP(=O)(N(C)C)N%23C[C@@H](COP(=O)(N(C)C)N%24C[C@@H](COP(=O)(N(C)C)N%25C[C@@H](COP(=O)(N(C)C)N%26C[C@@H](COP(=O)(N(C)C)N%27C[C@@H](COP(=O)(N(C)C)N(C)CC(N)=O)O[C@@H](n%28cnc%29c(=O)[nH]c(N)nc%29%28)C%27)O[C@@H](n%27cnc%28c(=O)[nH]c(N)nc%28%27)C%26)O[C@@H](n%26ccc(N)nc%26=O)C%25)O[C@@H](n%25ccc(N)nc%25=O)C%24)O[C@@H](n%24cnc%25c(N)ncnc%25%24)C%23)O[C@@H](n%23cnc%24c(N)ncnc%24%23)C%22)O[C@@H](n%22cnc%23c(N)ncnc%23%22)C%21)O[C@@H](n%21ccc(N)nc%21=O)C%20)O[C@@H](n%20ccc(N)nc%20=O)C%19)O[C@@H](n%19cc(C)c(=O)[nH]c%19=O)C%18)O[C@@H](n%18ccc(N)nc%18=O)C%17)O[C@@H](n%17cnc%18c(=O)[nH]c(N)nc%18%17)C%16)O[C@@H](n%16cnc%17c(=O)[nH]c(N)nc%17%16)C%15)O[C@@H](n%15ccc(N)nc%15=O)C%14)O[C@@H](n%14cc(C)c(=O)[nH]c%14=O)C%13)O[C@@H](n%13cc(C)c(=O)[nH]c%13=O)C%12)O[C@@H](n%12cnc%13c(N)ncnc%13%12)C%11)O[C@@H](n%11ccc(N)nc%11=O)C%10)O[C@@H](n%10ccc(N)nc%10=O)C9)O[C@@H](n9cc(C)c(=O)[nH]c9=O)C8)O[C@@H](n8cnc9c(=O)[nH]c(N)nc98)C7)O[C@@H](n7cnc8c(N)ncnc87)C6)O[C@@H](n6cnc7c(N)ncnc76)C5)O[C@@H](n5cnc6c(N)ncnc65)C4)O[C@@H](n4cc(C)c(=O)[nH]c4=O)C3)nn2)C(N)=O)NC(=O)[C@H](Cc2ccc(O)cc2)N(C)C(=O)[C@H](Cc2ccc(O)cc2)NC(=O)[C@H](CCCNC(=N)N)NC(=O)[C@H](CCCNC(=N)N)NC(=O)[C@H]([C@@H](C)CC)NC1=O` (some centres unmarked) [Example 60] stands more than 7.00.

For orientation: pKd means −log10 of the Kd, conventionally taken in molar units. Low readings indicate a high Kd, high ones a low Kd.

The record behind these values is US20240390508A1, “HUMAN TRANSFERRIN RECEPTOR BINDING PEPTIDE-DRUG CONJUGATE” (priority 2021, published 2024).
